Values of other authors as cited in US20240180809A1, “METHOD FOR DYEING KERATIN MATERIAL, INCLUDING THE USE OF AN ORGANIC C1-C6 ALKOXY SILANE, A DYEING COMPOUND, AND A HEAT TREATMENT” (Henkel AG & Co. KGaA, priority 2021, published 2024).

| Molecule | solubility in water (25° C.) | other results |
| --- | --- | --- |
| Nc1cc(S(=O)(=O)[O-])cc2cc(S(=O)(=O)[O-])c(N=Nc3ccccc3)c(O)c12.[Na+].[Na+] [Acid Red 33, disodium salt of 5-amino-4-hydroxy-3-(phenylazo)-naphthalene-2,7-disulfonate] | 2.5 mg/mL |  |
| CCN(Cc1cccc(S(=O)(=O)[O-])c1)c1ccc(C(=C2C=CC(=[N+](CC)Cc3cccc(S(=O)(=O)[O-])c3)C=C2)c2ccccc2S(=O)(=O)[O-])cc1.[Na+].[Na+] [Acid Blue 9] |  | water solubility (25° C.): more than 20 wt. % |
| O=C([O-])c1c(Cl)c(Cl)c(Cl)c(Cl)c1-c1c2cc(Br)c(=O)c(Br)c-2oc2c(Br)c([O-])c(Br)cc12.[Na+].[Na+] [Acid Red 92, disodium salt of 3,4,5,6-tetrachloro-2-(1,4,5,8-tetrabromo-6-hydroxy-3-oxanthene-9-yl) benzoic acid] | greater than 10 g/L |  |
| O=C([O-])C1=NN(c2ccc(S(=O)(=O)[O-])cc2)C(=O)C1N=Nc1ccc(S(=O)(=O)[O-])cc1.[Na+].[Na+].[Na+] (stereo not drawn) [Acid Yellow 23, trisodium salt of 4,5-dihydro-5-oxo-1-(4-sulfophenyl)-4-((4-sulfophenyl)azo)-1H-pyrazole-3-carboxylic acid] |  | solubility in water (in words) (in water at 25° C.): readily soluble |
| O=S(=O)([O-])c1ccc(N=Nc2c(O)ccc3ccccc23)cc1.[Na+] [Acid Orange 7, sodium salt of 4-[(2-hydroxy-1-naphthyl)azo]benzene sulphonate] | more than 7 g/L |  |
| mixture of the sodium salts of mono- and sis-sulfonic acids of 2-(2-quinolyl)-1H-indene-1,3(2H)-dione [Acid Yellow 3] | 20 mg/mL |  |
